According to publication PMC6407917, “Identification of GSK3186899/DDD853651 as a Preclinical Development Candidate for the Treatment of Visceral Leishmaniasis” (Journal of Medicinal Chemistry, 2018):

How the values were obtained:
Assay in all cases: biochemical
Parameters in all cases: species or system HEK293/K-562/placenta mixed human extract; Kinobeads chemoproteomic competition binding, quantified by TMT LC-MS/MS, dose response up to 20 uM
MAPK1 = MAPK1 (Homo sapiens, UniProt P28482)
HCK = HCK (Homo sapiens, UniProt P08631)
Sequence of HCK (P08631 whole entry): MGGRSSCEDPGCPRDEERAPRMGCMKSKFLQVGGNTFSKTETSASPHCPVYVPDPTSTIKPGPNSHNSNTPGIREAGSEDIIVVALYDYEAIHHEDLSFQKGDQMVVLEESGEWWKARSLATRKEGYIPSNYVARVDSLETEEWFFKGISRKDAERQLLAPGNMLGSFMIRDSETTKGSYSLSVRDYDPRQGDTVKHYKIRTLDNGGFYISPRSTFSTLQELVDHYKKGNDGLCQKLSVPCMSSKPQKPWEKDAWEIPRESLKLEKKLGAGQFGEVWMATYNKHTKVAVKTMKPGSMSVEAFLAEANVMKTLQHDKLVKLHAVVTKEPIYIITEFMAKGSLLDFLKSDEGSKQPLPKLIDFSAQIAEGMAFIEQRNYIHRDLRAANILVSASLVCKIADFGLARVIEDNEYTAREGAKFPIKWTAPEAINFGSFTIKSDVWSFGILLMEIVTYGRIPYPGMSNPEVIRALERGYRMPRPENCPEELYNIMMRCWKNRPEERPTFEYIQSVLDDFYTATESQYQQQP

CHEK1 = CHEK1 (Homo sapiens, UniProt O14757)
Sequence of CHEK1 (O14757 whole entry): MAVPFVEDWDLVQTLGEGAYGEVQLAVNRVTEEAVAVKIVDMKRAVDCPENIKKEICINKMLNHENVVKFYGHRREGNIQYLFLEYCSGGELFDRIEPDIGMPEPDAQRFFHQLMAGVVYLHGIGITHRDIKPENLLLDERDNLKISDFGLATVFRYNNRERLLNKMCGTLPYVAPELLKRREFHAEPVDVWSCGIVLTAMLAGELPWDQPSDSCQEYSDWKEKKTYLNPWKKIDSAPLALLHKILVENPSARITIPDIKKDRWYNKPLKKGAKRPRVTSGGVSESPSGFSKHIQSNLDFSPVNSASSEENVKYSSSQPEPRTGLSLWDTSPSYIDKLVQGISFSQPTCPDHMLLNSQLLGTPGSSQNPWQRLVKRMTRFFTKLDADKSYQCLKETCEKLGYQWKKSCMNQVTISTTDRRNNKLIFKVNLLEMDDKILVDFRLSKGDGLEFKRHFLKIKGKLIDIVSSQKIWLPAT

LATS2 = LATS2 (Homo sapiens, UniProt Q9NRM7)
FER = FER (Homo sapiens, UniProt P16591)
Sequence of FER (P16591 whole entry): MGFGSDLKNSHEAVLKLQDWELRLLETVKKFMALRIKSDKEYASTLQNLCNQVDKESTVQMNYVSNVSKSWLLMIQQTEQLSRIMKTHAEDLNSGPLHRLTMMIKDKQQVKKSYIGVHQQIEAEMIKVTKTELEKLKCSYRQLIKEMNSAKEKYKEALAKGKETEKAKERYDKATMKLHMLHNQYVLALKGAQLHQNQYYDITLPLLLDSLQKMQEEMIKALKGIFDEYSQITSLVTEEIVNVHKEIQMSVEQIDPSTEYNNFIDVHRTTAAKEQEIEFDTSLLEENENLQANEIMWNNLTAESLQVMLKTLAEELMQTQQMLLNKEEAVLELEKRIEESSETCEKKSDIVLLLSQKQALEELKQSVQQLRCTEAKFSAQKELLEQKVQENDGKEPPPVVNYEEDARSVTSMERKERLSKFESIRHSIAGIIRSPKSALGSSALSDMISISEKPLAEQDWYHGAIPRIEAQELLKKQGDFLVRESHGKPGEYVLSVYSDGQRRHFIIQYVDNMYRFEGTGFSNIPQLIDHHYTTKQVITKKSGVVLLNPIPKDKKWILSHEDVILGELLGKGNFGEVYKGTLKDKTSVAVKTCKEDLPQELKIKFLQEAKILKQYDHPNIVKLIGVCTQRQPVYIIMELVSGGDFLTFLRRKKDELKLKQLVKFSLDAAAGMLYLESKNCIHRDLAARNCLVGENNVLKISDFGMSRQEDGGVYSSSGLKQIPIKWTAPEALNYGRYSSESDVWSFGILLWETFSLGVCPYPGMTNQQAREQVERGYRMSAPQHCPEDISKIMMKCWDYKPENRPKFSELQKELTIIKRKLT

NTRK1 = NTRK1 (Homo sapiens, UniProt P04629)
DAPK1 = DAPK1 (Homo sapiens, UniProt P53355)
LATS1 = LATS1 (Homo sapiens, UniProt O95835)
Sequence of LATS1 (O95835 whole entry): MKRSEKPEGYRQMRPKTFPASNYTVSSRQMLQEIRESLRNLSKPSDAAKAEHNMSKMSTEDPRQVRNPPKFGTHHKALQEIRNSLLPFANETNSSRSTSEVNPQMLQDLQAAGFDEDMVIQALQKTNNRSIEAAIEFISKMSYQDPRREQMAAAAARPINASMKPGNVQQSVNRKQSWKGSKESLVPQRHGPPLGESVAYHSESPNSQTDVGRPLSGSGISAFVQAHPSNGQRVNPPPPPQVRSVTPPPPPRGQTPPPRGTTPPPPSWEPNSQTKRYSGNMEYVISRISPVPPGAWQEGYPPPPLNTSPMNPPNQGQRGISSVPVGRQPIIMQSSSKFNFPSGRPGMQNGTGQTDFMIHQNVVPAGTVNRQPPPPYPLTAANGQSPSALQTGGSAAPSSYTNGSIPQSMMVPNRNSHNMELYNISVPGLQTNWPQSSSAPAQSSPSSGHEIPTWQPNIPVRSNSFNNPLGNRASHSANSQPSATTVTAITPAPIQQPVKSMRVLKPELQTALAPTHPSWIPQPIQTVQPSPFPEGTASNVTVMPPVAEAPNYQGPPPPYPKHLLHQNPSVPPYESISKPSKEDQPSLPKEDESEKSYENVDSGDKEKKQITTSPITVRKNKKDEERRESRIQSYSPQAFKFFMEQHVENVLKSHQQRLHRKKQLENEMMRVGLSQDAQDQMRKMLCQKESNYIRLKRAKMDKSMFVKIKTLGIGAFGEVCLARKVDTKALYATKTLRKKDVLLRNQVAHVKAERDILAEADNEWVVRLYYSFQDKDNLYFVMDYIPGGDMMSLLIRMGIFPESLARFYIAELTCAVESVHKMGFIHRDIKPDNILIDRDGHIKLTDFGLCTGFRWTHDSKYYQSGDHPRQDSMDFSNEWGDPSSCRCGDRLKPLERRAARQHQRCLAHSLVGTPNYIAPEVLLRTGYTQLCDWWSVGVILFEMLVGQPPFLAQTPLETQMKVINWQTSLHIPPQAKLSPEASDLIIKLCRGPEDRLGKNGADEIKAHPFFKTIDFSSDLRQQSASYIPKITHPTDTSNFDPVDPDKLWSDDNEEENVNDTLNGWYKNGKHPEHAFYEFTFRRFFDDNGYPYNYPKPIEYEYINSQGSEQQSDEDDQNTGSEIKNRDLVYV

RIOK2 = RIOK2 (Homo sapiens, UniProt Q9BVS4)
Sequence of RIOK2 (Q9BVS4 whole entry): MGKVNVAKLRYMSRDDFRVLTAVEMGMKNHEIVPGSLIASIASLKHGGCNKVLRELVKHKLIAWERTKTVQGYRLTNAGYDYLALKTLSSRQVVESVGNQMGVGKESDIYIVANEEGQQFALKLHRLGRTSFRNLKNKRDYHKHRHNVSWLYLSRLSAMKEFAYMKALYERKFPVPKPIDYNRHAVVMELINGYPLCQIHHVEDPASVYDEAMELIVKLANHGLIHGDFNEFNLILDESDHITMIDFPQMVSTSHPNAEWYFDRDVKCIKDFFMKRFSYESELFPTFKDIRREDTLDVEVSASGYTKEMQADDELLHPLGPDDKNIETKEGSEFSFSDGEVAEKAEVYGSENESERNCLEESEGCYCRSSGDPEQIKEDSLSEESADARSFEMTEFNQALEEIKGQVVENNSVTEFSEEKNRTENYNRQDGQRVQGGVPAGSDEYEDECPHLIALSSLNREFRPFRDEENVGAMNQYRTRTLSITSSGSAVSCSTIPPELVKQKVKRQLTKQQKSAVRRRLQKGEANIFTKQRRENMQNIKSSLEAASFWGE

LIMK1 = LIMK1 (Homo sapiens, UniProt P53667)
PDXK = PDXK (Homo sapiens, UniProt O00764)
FN3KRP = FN3KRP (Homo sapiens, UniProt Q9HA64)
PRKAA2 = PRKAA2 (Homo sapiens, UniProt P54646)
IKBKE = IKBKE (Homo sapiens, UniProt Q14164)
SRC = SRC (Homo sapiens, UniProt P12931)
MAP3K2 = MAP3K2 (Homo sapiens, UniProt Q9Y2U5)
MAPK8 = MAPK8 (Homo sapiens, UniProt P45983)
Sequence of MAPK8 (P45983 whole entry): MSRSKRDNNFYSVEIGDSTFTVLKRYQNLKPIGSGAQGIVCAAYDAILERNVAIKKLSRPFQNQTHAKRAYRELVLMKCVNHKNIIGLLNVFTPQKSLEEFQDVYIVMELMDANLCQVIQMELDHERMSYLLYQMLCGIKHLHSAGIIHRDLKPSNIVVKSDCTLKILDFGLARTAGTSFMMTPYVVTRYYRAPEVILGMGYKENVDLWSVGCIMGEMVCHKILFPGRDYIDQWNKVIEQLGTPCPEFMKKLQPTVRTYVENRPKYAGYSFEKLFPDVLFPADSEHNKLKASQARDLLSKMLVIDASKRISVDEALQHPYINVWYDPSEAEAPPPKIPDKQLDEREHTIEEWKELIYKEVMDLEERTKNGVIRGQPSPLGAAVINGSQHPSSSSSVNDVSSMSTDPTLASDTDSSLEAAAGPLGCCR

BMX = BMX (Homo sapiens, UniProt P51813)
Sequence of BMX (P51813 whole entry): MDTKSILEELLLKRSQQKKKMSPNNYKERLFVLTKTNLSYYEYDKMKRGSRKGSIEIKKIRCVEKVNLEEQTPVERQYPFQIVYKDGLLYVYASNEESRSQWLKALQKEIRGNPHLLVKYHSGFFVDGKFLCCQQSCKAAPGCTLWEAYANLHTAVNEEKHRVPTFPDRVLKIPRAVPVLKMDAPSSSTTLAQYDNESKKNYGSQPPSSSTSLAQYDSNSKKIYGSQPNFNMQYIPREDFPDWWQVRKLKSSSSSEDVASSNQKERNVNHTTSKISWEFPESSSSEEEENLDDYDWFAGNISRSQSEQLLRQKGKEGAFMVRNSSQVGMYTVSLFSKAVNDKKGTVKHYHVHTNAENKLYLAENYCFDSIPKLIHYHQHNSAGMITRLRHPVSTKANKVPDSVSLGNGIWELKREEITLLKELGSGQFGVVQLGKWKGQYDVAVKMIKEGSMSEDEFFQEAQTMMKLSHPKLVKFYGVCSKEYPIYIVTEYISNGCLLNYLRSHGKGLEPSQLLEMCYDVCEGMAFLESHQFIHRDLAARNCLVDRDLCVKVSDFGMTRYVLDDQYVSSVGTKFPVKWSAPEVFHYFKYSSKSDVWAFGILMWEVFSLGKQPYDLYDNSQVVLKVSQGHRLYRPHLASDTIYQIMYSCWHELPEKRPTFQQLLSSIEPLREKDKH

STRADA = STRADA (Homo sapiens, UniProt Q7RTN6)
MAPK9 = MAPK9 (Homo sapiens, UniProt P45984)
Sequence of MAPK9 (P45984 whole entry): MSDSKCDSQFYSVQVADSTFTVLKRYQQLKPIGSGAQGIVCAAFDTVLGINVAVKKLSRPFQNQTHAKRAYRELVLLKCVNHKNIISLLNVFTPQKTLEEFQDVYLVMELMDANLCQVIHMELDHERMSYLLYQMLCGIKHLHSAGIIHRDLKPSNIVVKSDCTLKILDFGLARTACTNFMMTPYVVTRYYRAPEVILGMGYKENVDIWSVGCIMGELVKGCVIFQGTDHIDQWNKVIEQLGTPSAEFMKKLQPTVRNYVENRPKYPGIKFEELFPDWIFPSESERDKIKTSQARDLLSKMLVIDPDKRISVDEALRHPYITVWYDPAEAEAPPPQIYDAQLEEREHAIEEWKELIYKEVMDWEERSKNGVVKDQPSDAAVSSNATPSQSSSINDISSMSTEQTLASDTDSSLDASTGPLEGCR

ADK = ADK (Homo sapiens, UniProt P55263)

Measured: IC50

COc1ccccc1-c1n[nH]c2nc(N[C@H]3CC[C@H](NS(=O)(=O)CCC(F)(F)F)CC3)nc(OC)c12 [compound 31, 3,3,3-Trifluoro-N-(trans-4-((4-methoxy-3-(2-methoxyphenyl)-1H-pyrazolo[3,4-d]pyrimidin-6-yl)amino)cyclohexyl)propane-1-sulfonamide]
≥ 20 µM: all assays above
